# In patent US10766865B2, “PKM2 modulators and methods for their use” (TOLERO PHARMACEUTICALS, INC., priority 2012, dated 2020):
# Molecular target: PKM2 (Homo sapiens, UniProt P14618)
# Experiment: PKM2 Biochemical Assay
# Conditions: not given
# Chain of PKM2 (P14618 whole entry): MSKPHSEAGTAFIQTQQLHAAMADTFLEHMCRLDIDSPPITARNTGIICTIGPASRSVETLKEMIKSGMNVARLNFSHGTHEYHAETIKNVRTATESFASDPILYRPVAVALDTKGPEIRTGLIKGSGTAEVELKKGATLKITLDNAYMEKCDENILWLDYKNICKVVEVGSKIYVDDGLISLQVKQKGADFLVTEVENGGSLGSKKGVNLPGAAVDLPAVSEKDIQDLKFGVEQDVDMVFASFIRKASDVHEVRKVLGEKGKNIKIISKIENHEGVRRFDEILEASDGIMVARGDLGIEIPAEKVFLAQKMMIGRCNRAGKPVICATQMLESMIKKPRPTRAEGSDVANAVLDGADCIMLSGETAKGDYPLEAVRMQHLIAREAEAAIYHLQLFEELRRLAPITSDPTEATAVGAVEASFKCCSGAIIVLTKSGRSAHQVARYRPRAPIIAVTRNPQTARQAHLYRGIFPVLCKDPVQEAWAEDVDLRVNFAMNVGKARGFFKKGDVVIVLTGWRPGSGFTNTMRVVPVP
row,Compound,AC50 [µM]
1,"CCN1CCCC1CN(Cc1ccccc1Cl)C(=O)c1cc(C(F)(F)F)n[nH]1 (stereo not shown) [Example 231, N-(2-chlorobenzyl)-N-((1-ethylpyrrolidin-2-yl)methyl)-3-(trifluoromethyl)-1H-pyrazole-5-carboxamide]",0.148

# Same assay, conditions: % maximum response in a biochemical assay as compared with Fructose 1,6-bisphosphate
row,Compound,Max. Resp. [%]
1,"CC1CCCN(CCN(Cc2ccccc2F)C(=O)c2cc(C(F)(F)F)n[nH]2)C1 (stereo not shown) [Example 201, N-(2-fluorobenzyl)-3-(trifluoromethyl)-N-(2-(3-methylpiperidin-1-yl)ethyl)-1H-pyrazole-5-carboxamide]",100
2,"CC1CCCCN1CCN(Cc1cc(N)ccc1Cl)C(=O)c1cc(C(F)(F)F)n[nH]1 (stereo not shown) [Example 202, N-(5-amino-2-chlorobenzyl)-3-(trifluoromethyl)-N-(2-(2-methylpiperidin-1-yl)ethyl)-1H-pyrazole-5-carboxamide]",100
3,"CC1CCCCN1CCN(Cc1ccccc1F)C(=O)c1cc(C(F)(F)F)n[nH]1 (stereo not shown) [Example 203, N-(2-fluorobenzyl)-3-(trifluoromethyl)-N-(2-(2-methylpiperidin-1-yl)ethyl)-1H-pyrazole-5-carboxamide]",100
4,"CCN(CCN(Cc1ccccc1Cl)C(=O)c1cc(C(F)(F)F)n[nH]1)C(C)C [Example 204, N-(2-chlorobenzyl)-N-(2-(ethyl-isopropylamino)ethyl)-3-(trifluoromethyl)-1H-pyrazole-5-carboxamide]",53
5,"O=C(c1cc(C(F)(F)F)n[nH]1)N(CCN1CCC(F)(F)CC1)Cc1ccccc1Cl [Example 205, N-(2-chlorobenzyl)-3-(trifluoromethyl)-N-(2-(4,4-difluoropiperidin-1-yl)ethyl)-1H-pyrazole-5-carboxamide]",100
6,"O=C(c1cc(C(F)(F)F)n[nH]1)N(CCN1CCCC1)Cc1cccc2[nH]cc(F)c12 [Example 206, N-((3-fluoro-1H-indol-4-yl)methyl)-3-(trifluoromethyl)-N-(2-(pyrrolidin-1-yl)ethyl)-1H-pyrazole-5-carboxamide]",100
7,"Nc1ccc(CN(CCN2CCCCCC2)C(=O)c2cc(C(F)(F)F)n[nH]2)c(Cl)c1 [Example 207, N-(4-amino-2-chlorobenzyl)-N-(2-(azepan-1-yl)ethyl)-3-(trifluoromethyl)-1H-pyrazole-5-carboxamide]",75
8,"O=C(c1cc(C(F)(F)F)n[nH]1)N(CCN1CCCCCC1)Cc1cccc2nc[nH]c12 [Example 208, N-((1H-benzo[d]imidazol-7-yl)methyl)-N-(2-(azepan-1-yl)ethyl)-3-(trifluoromethyl)-1H-pyrazole-5-carboxamide]",100
9,"CCCN(CC)CCN(Cc1ccccc1Cl)C(=O)c1cc(C(F)(F)F)n[nH]1 [Example 209, N-(2-chlorobenzyl)-N-(2-(ethyl-propylamino)ethyl)-3-(trifluoromethyl)-1H-pyrazole-5-carboxamide]",100
10,"O=C(c1cc(C(F)(F)F)n[nH]1)N(CCN1CCCCCC1)Cc1cccc([N+](=O)[O-])c1Cl [Example 210, N-(2-chloro-3-nitrobenzyl)-N-(2-(azepan-1-yl)ethyl)-3-(trifluoromethyl)-1H-pyrazole-5-carboxamide]",100
11,"O=C(c1cc(C(F)(F)F)n[nH]1)N(CCN1CCCCCC1)Cc1c(Cl)cccc1[N+](=O)[O-] [Example 211, N-(2-chloro-6-nitrobenzyl)-N-(2-(azepan-1-yl)ethyl)-3-(trifluoromethyl)-1H-pyrazole-5-carboxamide]",100
12,"CC1CCCC(C)N1CCN(Cc1ccccc1Cl)C(=O)c1cc(C(F)(F)F)n[nH]1 (stereo not shown) [Example 212, N-(2-chlorobenzyl)-3-(trifluoromethyl)-N-(2-(2,6-dimethylpiperidin-1-yl)ethyl)-1H-pyrazole-5-carboxamide]",53
13,"Nc1cccc(CN(CCN2CCCCCC2)C(=O)c2cc(C(F)(F)F)n[nH]2)c1Cl [Example 213, N-(3-amino-2-chlorobenzyl)-N-(2-(azepan-1-yl)ethyl)-3-(trifluoromethyl)-1H-pyrazole-5-carboxamide]",100
14,"Nc1ccc(F)c(CN(CCN2CCCCCC2)C(=O)c2cc(C(F)(F)F)n[nH]2)c1 [Example 214, N-(5-amino-2-fluorobenzyl)-N-(2-(azepan-1-yl)ethyl)-3-(trifluoromethyl)-1H-pyrazole-5-carboxamide]",100
15,"COc1ccc(N)cc1CN(CCN1CCCCCC1)C(=O)c1cc(C(F)(F)F)n[nH]1 [Example 215, N-(5-amino-2-methoxybenzyl)-N-(2-(azepan-1-yl)ethyl)-3-(trifluoromethyl)-1H-pyrazole-5-carboxamide]",100
16,"Nc1cccc(CN(CCN2CCCCCC2)C(=O)c2cc(C(F)(F)F)n[nH]2)c1F [Example 216, N-(3-amino-2-fluorobenzyl)-N-(2-(azepan-1-yl)ethyl)-3-(trifluoromethyl)-1H-pyrazole-5-carboxamide]",100
17,"COc1c(N)cccc1CN(CCN1CCCCCC1)C(=O)c1cc(C(F)(F)F)n[nH]1 [Example 217, N-(3-amino-2-methoxybenzyl)-N-(2-(azepan-1-yl)ethyl)-3-(trifluoromethyl)-1H-pyrazole-5-carboxamide]",100

row,Compound,Max. Resp. [%]
1,"Nc1cccc(Cl)c1CN(CCN1CCCCCC1)C(=O)c1cc(C(F)(F)F)n[nH]1 [Example 218, N-(2-amino-6-chlorobenzyl)-N-(2-(azepan-1-yl)ethyl)-3-(trifluoromethyl)-1H-pyrazole-5-carboxamide]",100
2,"O=C(c1cc(C(F)(F)F)n[nH]1)N(CCN1CCC(O)CC1)Cc1ccccc1Cl [Example 219, N-(2-chlorobenzyl)-3-(trifluoromethyl)-N-(2-(4-hydroxypiperidin-1-yl)ethyl)-1H-pyrazole-5-carboxamide]",100
3,"O=C(c1cc(C(F)(F)F)n[nH]1)N(CCN1CCCC(O)C1)Cc1ccccc1Cl (stereo not shown) [Example 220, N-(2-chlorobenzyl)-3-(trifluoromethyl)-N-(2-(3-hydroxypiperidin-1-yl)ethyl)-1H-pyrazole-5-carboxamide]",100
4,"CC(CN(Cc1c(N)cccc1Cl)C(=O)c1cc(C(F)(F)F)n[nH]1)N1CCCC1 (stereo not shown) [Example 221, N-(2-amino-6-chlorobenzyl)-3-(trifluoromethyl)-N-(2-(pyrrolidin-1-yl)propyl)-1H-pyrazole-5-carboxamide]",60
5,"Nc1cccc(Cl)c1CN(CCN1CCCC1)C(=O)c1cc(C(F)(F)F)n[nH]1 [Example 222, N-(2-amino-6-chlorobenzyl)-3-(trifluoromethyl)-N-(2-(pyrrolidin-1-yl)ethyl)-1H-pyrazole-5-carboxamide]",100
6,"Nc1cccc(Cl)c1CN(CCN1CCS(=O)(=O)CC1)C(=O)c1cc(C(F)(F)F)n[nH]1 [Example 224, N-(2-amino-6-chlorobenzyl)-N-(2-(4-dioxothiomorpholino)ethyl)-3-(trifluoromethyl)-1H-pyrazole-5-carboxamide]",100
7,"Nc1cccc(Cl)c1CN(CCN1CCCC(O)C1)C(=O)c1cc(C(F)(F)F)n[nH]1 (stereo not shown) [Example 225, N-(2-amino-6-chlorobenzyl)-3-(trifluoromethyl)-N-(2-(3-hydroxypiperidin-1-yl)ethyl)-1H-pyrazole-5-carboxamide]",100
8,"CS(=O)(=O)N1CCCC(CCN(Cc2ccccc2Cl)C(=O)c2cc(C(F)(F)F)n[nH]2)C1 (stereo not shown) [Example 228, N-(2-chlorobenzyl)-N-(2-(1-(methylsulfonyl)piperidin-3-yl)ethyl)-3-(trifluoromethyl)-1H-pyrazole-5-carboxamide]",100
9,"O=C(c1cc(C(F)(F)F)n[nH]1)N(CCc1ccc(O)cc1)Cc1ccccc1Cl [Example 230, N-(2-chlorobenzyl)-N-(4-hydroxyphenethyl)-3-(trifluoromethyl)-1H-pyrazole-5-carboxamide]",100
10,"CCN1CCCC1CN(Cc1ccccc1Cl)C(=O)c1cc(C(F)(F)F)n[nH]1 (stereo not shown) [Example 231, N-(2-chlorobenzyl)-N-((1-ethylpyrrolidin-2-yl)methyl)-3-(trifluoromethyl)-1H-pyrazole-5-carboxamide]",65
11,"O=C(c1cc(C(F)(F)F)n[nH]1)N(Cc1ccccc1Cl)CC1CCCN1 (stereo not shown) [Example 232, N-(2-chlorobenzyl)-3-(trifluoromethyl)-N-((pyrrolidin-2-yl)methyl)-1H-pyrazole-5-carboxamide]",85
12,"Nc1cccc(Cl)c1CN(CC1CCN1)C(=O)c1cc(C(F)(F)F)n[nH]1 (stereo not shown) [Example 233, N-(2-amino-6-chlorobenzyl)-N-((azetidin-2-yl)methyl)-3-(trifluoromethyl)-1H-pyrazole-5-carboxamide]",75
13,"COC1CCN(CCN(Cc2c(N)cccc2Cl)C(=O)c2cc(C(F)(F)F)n[nH]2)C1 (stereo not shown) [Example 235, N-(2-amino-6-chlorobenzyl)-3-(trifluoromethyl)-N-(2-(3-methoxypyrrolidin-1-yl)ethyl)-1H-pyrazole-5-carboxamide]",100
14,"COC1CCCN(CCN(Cc2c(N)cccc2Cl)C(=O)c2cc(C(F)(F)F)n[nH]2)C1 (stereo not shown) [Example 237, N-(2-amino-6-chlorobenzyl)-3-(trifluoromethyl)-N-(2-(3-methoxypiperidin-1-yl)ethyl)-1H-pyrazole-5-carboxamide]",100
15,"CCCN(CC)CCN(Cc1c(N)cccc1F)C(=O)c1cc(C(F)(F)F)n[nH]1 [Example 240, N-(2-fluoro-6-aminobenzyl)-N-(2-(ethyl-propylamino)ethyl)-3-(trifluoromethyl)-1H-pyrazole-5-carboxamide]",100
16,"Nc1cccc(Cl)c1CN(CCN1CC[C@H](F)C1)C(=O)c1cc(C(F)(F)F)n[nH]1 [Example 241, N-(2-amino-6-chlorobenzyl)-3-(trifluoromethyl)-N-(2-((S)-3-fluoropyrrolidin-1-yl)ethyl)-1H-pyrazole-5-carboxamide]",100
